# According to ChEMBL document CHEMBL1201862, “PubChem BioAssay data set” (2004):
#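 The compound was tested at five concentrations on cells cultured in 96-well plates, with a 48-hour exposure period. GI50: concentration for 50% inhibition of growth.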 Activity calls are given as the source filed them. Rule as the data show it: active = GI50 up to about 1.1 µM and inactive = higher.
# Tests used:
# Assay in all cases: DTP human tumour cell line panel, 48 h
# [1] = test system: A549
# [2] = test system: HCT-15
# [3] = test system: UACC-257
# [4] = test system: KM-20L2
# [5] = test system: HCT-116
# [6] = test system: 786-0
# [7] = test system: U-251
# [8] = test system: KM12
# [9] = test system: Malme-3M
# [10] = test system: SW-620
# [11] = test system: SNB-75
# [12] = test system: XF498
# [13] = test system: K562
# [14] = test system: EKVX
# [15] = test system: SNB-19
# [16] = test system: NCI-H460
# [17] = test system: M14
# [18] = test system: SK-OV-3
# [19] = test system: DLD-1
# [20] = test system: DMS-114
# [21] = test system: SK-MEL-28
# [22] = test system: UACC-62
# [23] = test system: HL-60
# [24] = test system: HOP-18
# [25] = test system: OVCAR-4
# [26] = test system: SNB-78
# [27] = test system: NCI-H226
# [28] = test system: SF-268
# [29] = test system: SF-295
# [30] = test system: SR
# [31] = test system: OVCAR-5
# [32] = test system: M19-MEL
# [33] = test system: SK-MEL-2
# [34] = test system: HCC 2998
# [35] = test system: COLO 205
# [36] = test system: A498
# [37] = test system: LXFL 529
# [38] = test system: RPMI-8226
# [39] = test system: OVCAR-8
# [40] = test system: IGROV-1
# [41] = test system: HOP-62
# [42] = test system: SK-MEL-5
# [43] = test system: MOLT-4
# [44] = test system: CCRF-CEM
# [45] = test system: OVCAR-3
# [46] = test system: TK-10
# [47] = test system: NCI-H23
# [48] = test system: HOP-92
# [49] = test system: NCI-H522
# [50] = test system: HT-29
# [51] = test system: CAKI-1
# [52] = test system: LOX IMVI
# [53] = test system: UO-31
# [54] = test system: RXF 393
# [55] = test system: SN12C
# [56] = test system: ACHN
# [57] = test system: DMS-273
# [58] = test system: SF-539
# [59] = test system: MCF7
# [60] = test system: NCI/ADR-RES
smiles,measurement,setting,value
CCOc1ccccc1NC(=O)CCC(=O)OC,GI50,[1],> 100 µM (inactive)
same,GI50,[2],> 74.5 µM
same,GI50,[3],> 100 µM (inactive)
same,GI50,[4],> 100 µM (inactive)
same,GI50,[5],> 100 µM (inactive)
same,GI50,[6],> 100 µM (inactive)
same,GI50,[7],> 49.9 µM (inactive)
same,GI50,[8],> 100 µM (inactive)
same,GI50,[9],> 100 µM (inactive)
same,GI50,[10],> 42.1 µM (inactive)
same,GI50,[11],> 100 µM (inactive)
same,GI50,[12],> 100 µM (inactive)
same,GI50,[13],> 56.2 µM (inactive)
same,GI50,[14],> 100 µM (inactive)
same,GI50,[15],> 100 µM (inactive)
same,GI50,[16],> 100 µM (inactive)
same,GI50,[17],> 100 µM (inactive)
same,GI50,[18],> 100 µM (inactive)
same,GI50,[19],> 83 µM (inactive)
same,GI50,[20],> 61.1 µM (inactive)
same,GI50,[21],> 100 µM (inactive)
same,GI50,[22],> 100 µM (inactive)
same,GI50,[23],> 51.8 µM (inactive)
same,GI50,[24],> 100 µM (inactive)
same,GI50,[25],> 100 µM (inactive)
same,GI50,[26],> 100 µM (inactive)
same,GI50,[27],> 100 µM (inactive)
same,GI50,[28],> 100 µM (inactive)
same,GI50,[29],> 100 µM (inactive)
same,GI50,[30],> 47 µM (inactive)
same,GI50,[31],> 100 µM (inactive)
same,GI50,[32],> 100 µM (inactive)
same,GI50,[33],> 100 µM (inactive)
same,GI50,[34],> 100 µM (inactive)
same,GI50,[35],> 58.2 µM (inactive)
same,GI50,[36],> 100 µM (inactive)
same,GI50,[37],> 100 µM (inactive)
same,GI50,[38],> 48.3 µM (inactive)
same,GI50,[39],> 100 µM (inactive)
same,GI50,[40],> 100 µM (inactive)
same,GI50,[41],> 100 µM (inactive)
same,GI50,[42],> 100 µM (inactive)
same,GI50,[43],> 100 µM (inactive)
same,GI50,[44],> 45.6 µM (inactive)
same,GI50,[45],> 100 µM (inactive)
same,GI50,[46],> 100 µM (inactive)
same,GI50,[47],> 100 µM (inactive)
same,GI50,[48],> 100 µM (inactive)
same,GI50,[49],> 100 µM (inactive)
same,GI50,[50],> 100 µM (inactive)
same,GI50,[51],> 100 µM (inactive)
same,GI50,[52],> 31.6 µM (inactive)
same,GI50,[53],> 100 µM (inactive)
same,GI50,[54],> 100 µM (inactive)
same,GI50,[55],> 100 µM (inactive)
same,GI50,[56],> 100 µM (inactive)
same,GI50,[57],> 100 µM (inactive)
O=c1ncccn1C1C=C(CO)C(O)C1O (stereo not drawn),GI50,[1],> 50 µM (inactive)
same,GI50,[2],> 50 µM
same,GI50,[3],> 50 µM (inactive)
same,GI50,[4],> 50 µM (inactive)
same,GI50,[6],> 50 µM (inactive)
same,GI50,[7],> 50 µM (inactive)
same,GI50,[8],> 50 µM (inactive)
same,GI50,[9],> 50 µM (inactive)
same,GI50,[10],> 50 µM (inactive)
same,GI50,[58],> 50 µM (inactive)
same,GI50,[12],> 50 µM (inactive)
same,GI50,[13],> 50 µM (inactive)
same,GI50,[14],> 50 µM (inactive)
same,GI50,[15],> 50 µM (inactive)
same,GI50,[16],> 50 µM (inactive)
same,GI50,[17],> 50 µM (inactive)
same,GI50,[18],> 50 µM (inactive)
same,GI50,[19],> 50 µM (inactive)
same,GI50,[20],> 50 µM (inactive)
same,GI50,[21],> 50 µM (inactive)
same,GI50,[23],> 50 µM (inactive)
same,GI50,[24],> 50 µM (inactive)
same,GI50,[25],> 50 µM (inactive)
same,GI50,[26],> 50 µM (inactive)
same,GI50,[27],> 50 µM (inactive)
same,GI50,[28],> 50 µM (inactive)
same,GI50,[29],> 50 µM (inactive)
same,GI50,[31],> 50 µM (inactive)
same,GI50,[33],> 50 µM (inactive)
same,GI50,[34],> 50 µM (inactive)
same,GI50,[35],> 50 µM (inactive)
same,GI50,[36],> 50 µM (inactive)
same,GI50,[37],> 50 µM (inactive)
same,GI50,[38],> 50 µM (inactive)
same,GI50,[41],> 50 µM (inactive)
same,GI50,[42],> 50 µM (inactive)
same,GI50,[43],> 50 µM (inactive)
same,GI50,[44],> 50 µM (inactive)
same,GI50,[45],> 50 µM (inactive)
same,GI50,[46],> 50 µM (inactive)
same,GI50,[47],> 50 µM (inactive)
same,GI50,[48],> 50 µM (inactive)
same,GI50,[49],> 50 µM (inactive)
same,GI50,[50],> 50 µM (inactive)
same,GI50,[51],> 50 µM (inactive)
same,GI50,[52],> 50 µM (inactive)
same,GI50,[53],> 50 µM (inactive)
same,GI50,[56],> 50 µM (inactive)
same,GI50,[57],> 50 µM (inactive)
O=C(OC(=O)n1ccc2ccccc21)n1ccc2ccccc21,GI50,[1],> 100 µM (inactive)
same,GI50,[2],> 100 µM
same,GI50,[3],> 100 µM (inactive)
same,GI50,[4],> 100 µM (inactive)
same,GI50,[5],> 100 µM (inactive)
same,GI50,[7],> 100 µM (inactive)
same,GI50,[8],> 100 µM (inactive)
same,GI50,[10],> 100 µM (inactive)
same,GI50,[11],84.1 µM (inactive)
same,GI50,[58],> 100 µM (inactive)
same,GI50,[12],> 100 µM (inactive)
same,GI50,[13],> 100 µM (inactive)
same,GI50,[14],> 100 µM (inactive)
same,GI50,[15],> 100 µM (inactive)
same,GI50,[16],> 100 µM (inactive)
same,GI50,[18],> 100 µM (inactive)
same,GI50,[59],> 100 µM (inactive)
same,GI50,[19],> 100 µM (inactive)
same,GI50,[20],> 100 µM (inactive)
same,GI50,[21],> 100 µM (inactive)
same,GI50,[22],> 100 µM (inactive)
same,GI50,[23],> 100 µM (inactive)
same,GI50,[24],> 100 µM (inactive)
same,GI50,[25],> 100 µM (inactive)
same,GI50,[26],> 100 µM (inactive)
same,GI50,[27],> 100 µM (inactive)
same,GI50,[28],> 100 µM (inactive)
same,GI50,[29],> 92.3 µM (inactive)
same,GI50,[31],> 100 µM (inactive)
same,GI50,[32],> 100 µM (inactive)
same,GI50,[33],> 100 µM (inactive)
same,GI50,[34],> 100 µM (inactive)
same,GI50,[35],> 100 µM (inactive)
same,GI50,[36],> 100 µM (inactive)
same,GI50,[38],> 100 µM (inactive)
same,GI50,[39],> 100 µM (inactive)
same,GI50,[40],> 100 µM (inactive)
same,GI50,[41],> 100 µM (inactive)
same,GI50,[42],> 100 µM (inactive)
same,GI50,[43],> 100 µM (inactive)
same,GI50,[44],> 100 µM (inactive)
same,GI50,[45],> 100 µM (inactive)
same,GI50,[47],> 100 µM (inactive)
same,GI50,[48],> 100 µM (inactive)
same,GI50,[60],> 100 µM (inactive)
same,GI50,[50],> 100 µM (inactive)
same,GI50,[51],> 96.4 µM (inactive)
same,GI50,[52],> 100 µM (inactive)
same,GI50,[53],75.7 µM (inactive)
same,GI50,[54],> 100 µM (inactive)
same,GI50,[55],> 100 µM (inactive)
same,GI50,[57],> 100 µM (inactive)
